Data published in patent US10894777B2, “TG2 inhibitor piperazine compounds and uses thereof” (UNIVERSITY OF OTTAWA, priority 2016, dated 2021).

Key:
TG2 [1] = biological target: T1, TG2 (Homo sapiens, UniProt P21980); experiment: Colorimetric transamidase activity assay (AL5 substrate), hTG2; format: biochemical
T1 sequence (P21980 1-687): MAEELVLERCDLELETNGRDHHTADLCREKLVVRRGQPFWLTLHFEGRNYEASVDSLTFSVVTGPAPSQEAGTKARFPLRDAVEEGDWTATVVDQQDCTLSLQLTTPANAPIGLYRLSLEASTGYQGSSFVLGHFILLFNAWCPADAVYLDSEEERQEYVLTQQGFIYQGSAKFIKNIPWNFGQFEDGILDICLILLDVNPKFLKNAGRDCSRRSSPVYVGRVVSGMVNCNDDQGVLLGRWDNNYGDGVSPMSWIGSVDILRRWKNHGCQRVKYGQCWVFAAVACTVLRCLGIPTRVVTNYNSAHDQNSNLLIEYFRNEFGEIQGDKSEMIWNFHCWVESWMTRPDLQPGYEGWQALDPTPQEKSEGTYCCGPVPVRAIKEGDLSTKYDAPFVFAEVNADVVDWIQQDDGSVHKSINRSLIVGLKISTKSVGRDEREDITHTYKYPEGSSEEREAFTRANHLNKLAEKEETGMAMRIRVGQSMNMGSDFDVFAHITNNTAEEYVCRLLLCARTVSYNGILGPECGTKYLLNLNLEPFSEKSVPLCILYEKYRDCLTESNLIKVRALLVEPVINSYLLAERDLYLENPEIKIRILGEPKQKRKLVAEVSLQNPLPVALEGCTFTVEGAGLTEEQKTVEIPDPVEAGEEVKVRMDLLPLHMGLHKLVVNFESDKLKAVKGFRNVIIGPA
Protocol: In Vitro Assays. Colorimetric transamidase activity assay. The activities of hTG1, hTG2 and hTG6 were measured via a colorimetric assay using the chromogenic substrate Cbz-Glu(γ-p-nitrophenyl ester)Gly (AL5). The assay was conducted at 25° C. in 100 mM MOPS buffer (pH 6.5) containing 3.0 mM CaCl2 and 50 μM EDTA. […] A stock solution of AL5 was prepared in DMSO such that the final concentration of this co-solvent was constant at 2.5% v/v. Stock solutions of the inhibitors were made in the buffer system previously described. The reaction was initiated with the addition of 40-60 mU/mL of the respective enzyme (0.10 μM hTG1, 0.25 μM hTG2 or 0.32 μM hTG6). Product formation was monitored at 405 nm in a polystyrene 96-well microplate using a BioTek Synergy 4 plate reader. […] Observed first-order rate constants of inactivation (kobs) were determined from non-linear regression fit to a mono-exponential model (Equation 1) of the observed absorbance of the enzymatic hydrolysis product, p-nitrophenolate (pNP). […] Experiments were done in triplicate and variation between repeats was less than 30%.

TG2 [2] = biological target: T1, TG2; experiment: In situ TG2 transamidase activity assay (fluorescein cadaverine incorporation), SCC-13 cells; format: cell-based; design: endogenous in cells; host or cells: SCC-13; conditions: for FC incorporation (TG2 transamidase activity): 20 μM 30 min, then A23187 90 min
Protocol: Insitu TG2 activity assay. Cells (40,000) were plated in 24-well attachment dishes in spheroid media and grown until 50% confluent. Fluorescein cadaverine (FC) was added in 2 mL of serum-free medium at a final concentration of 20 μM and incubated for 4 hours. The wells were washed twice with serum-free spheroid medium, and then 2 mL of fresh serum-free medium was added containing 0-20 μM NC9. After 30 min, the wells were supplemented with 10 μM A23187. Cells were incubated for an additional 90 min and then washed three times with Ca^++/Mg^++-free HBSS, fixed with formalin, and washed with phosphate-buffered saline and imaged to detect fluorescein.
In situ TG2 transamidase activity assay. Cells (40,000) were plated in 24-well attachment dishes in spheroid media and grown until 50% confluent. FC was added in 2 ml of serum-free medium at a final concentration of 20 μM and incubated for 4 h. […] After 30 min, the wells were supplemented with 10 NM A23187, a calcium ionophore.

SCC-13 cells = experiment: Spheroid formation / survival assay, SCC-13 cells (ECS cells); format: cell-based, human; conditions: for spheroid formation (cancer stem cell survival): 8 d spheroids, 20 μM, 48 h
Protocol: Spheroid formation assay. Cells, maintained as monolayer cultures in growth medium consisting of DMEM (Invitrogen, Frederick, Md.) supplemented with 4.5 mg/ml D-glucose, […] L-glutamine, […] sodium pyruvate, and 5% fetal calf serum, were harvested, collected by centrifugation, and resuspended in spheroid medium comprising DMEM/F12 (1:1) (DMT-10-090-CV, Mediatech Inc., Manassas, Va.) supplemented with 2% B27 serum-free supplement (17504-044, Invitrogen, Frederick, Md.), 20 ng/ml EGF (E4269, Sigma, St. Louis, Mo.), 0.4% bovine serum albumin (B4287, Sigma) and 4 μg/ml insulin (19278 Sigma, St. Louis, Mo.). The cells (40,000) were plated in 9.6 cm^2 wells in Costar six well ultra-low attachment cluster dishes (4371, Corning, Tewksbury, Mass.). Spheroid size and number was monitored with time in culture as previously described (Adhikary, G. et al., PLoS One 8:e84324, 2013).
Spheroid formation assay. Spheroid formation assays were exactly as outlined previously (Adhikary, G. et al., PLoS ONE 8:e84324, 2013), except that the spheroids were grown in six well ultra-low attachment Costar cluster dishes (4371, Corning, Tewksbury, Mass.).
Spheroid formation assay. Spheroid formation assays were as reported previously (Adhikary, G. et al., PLoS One 8:e84324, 2013), except that the spheroids were grown in 6-well ultralow attachment Costar cluster dishes (Corning).

U87 cells = experiment: Agarose colony formation assay, U87 cells; format: cell-based, human; conditions: 10 μM, 2 weeks
Protocol: Agarose colony formation assay. Agarose colony formation assay was conducted as described (Horman, S. R. et al., J. Biomol. Screen 18(10):1298-308, 2013; Zhang, K. et al., Tumour Biol. 35(3):2537-48, 2014) using 6-well plates and 5,000 cells in each well. 10 μM NC9 or DMSO was added to every layer at the start of the experiments. 2 mL liquid MEM containing 10 μM NC9 or DMSO was used to cover the agarose and it was changed 3 times a week. Colony growth was monitored every day and at the end of 10-15 days, the colonies were fixed with 4% paraformaldehyde, stained with 0.005% crystal violet, washed with PBS twice and 40 random pictures were taken from each treatment group. A person blinded for the treatments measured the area of the colonies using ImageJ program and the volumes were calculated from the area data under the assumption that the colonies are perfect spheres. The volumes were used to compare the effect of NC9 on colony growth.

TG2 [3] = biological target: T1, TG2; experiment: Inhibitor modulation of recombinant TG2 conformation (native gel); format: biochemical; design: made in house; conditions: 500 μM inhibitor 1 h, then 0 or 500 μM GTP
Protocol: Inhibitor modulation of recombinant TG2 conformation. Recombinant TG2 protein was prepared in the Center for Biomolecular Therapeutics by Dr. Eric Toth (University of Maryland School of Medicine). […] In some experiments, inhibitor and GTP were added simultaneously. Laemmli native loading buffer was added, and 6 μg of protein was electrophoresed on a native 4% to 6% acrylamide gel and electrophoresed at 125 V for 45 min at 4° C. using Tris-glycine running buffer (Pinkas, D. M. et al., PLoS Biol 5:e327, 2007; Begg, G. E. et al., Proc. Natl. Acad. Sci. USA 103:19683-8, 2006). The gel was subsequently fixed in 40% methanol/10% acetic acid for 30 min, stained 30 minutes with 0.25% Coomassie R-250, destained overnight with 10% methanol/10% acetic acid and photographed.

Row | kinact (TG2 [1]; Table 8, read-out: kinact (converted)) [s⁻¹] | kinact/KI (TG2 [1]; read-out: kinact/KI (10^3M^−1 min^−1), Table 8) [M⁻¹ s⁻¹] | Compound | kobs (10^−3 min^−1), TG2 (TG2 [1]; Table 9, Kitz and Wilson conditions, inhibitor concentration adjusted for competition with substrate) | FC incorporation (TG2 transamidase activity) (TG2 [2]) | TG2 transamidase activity (FC incorporation) (TG2 [2]; 20 μM NC9, calcium ionophore) | spheroid number, formation from single cells (SCC-13 cells; 10 or 20 μM single addition, 0-14 days, after day eight) | spheroid formation (cancer stem cell survival) (SCC-13 cells) | spheroid number, pre-formed spheroids (SCC-13 cells; spheroids grown for 8 days, then treated) | colony growth, U87 (U87 cells) | recombinant TG2 conformation, pre-incubation with inhibitor (TG2 [3]) | reduction in the inhibition binding constant (TG2 [1]; compared to NC9)
1 |  |  | C=CC(=O)NCCCC[C@H](NC(=O)OCc1ccccc1)C(=O)NCCOCCOCCNS(=O)(=O)c1cccc2c(N(C)C)cccc12 [NC9] | 390 ± 49 10^−3 min^−1 | drastically reduced | reduced | selectively declined | inhibited spheroid formation | reduced spheroid number | significantly reduced the growth | shifted TG2 from the closed to extended conformation and that this was not reversed by GTP addition | 
2 |  |  | C=CC(=O)NCCCC[C@H](NC(=O)OCc1ccccc1)C(=O)N1CCN(S(=O)(=O)c2cccc3c(N(C)C)cccc23)CC1 [VA4, (S)-benzyl(6-acrylamido-1-(4-((5-(dimethylamino)naphthalen-1-yl)sulfonyl)piperazin-1-yl)-1-oxohexan-2-yl)carbamate] |  | drastically reduced |  |  | inhibited spheroid formation |  | inhibited colony growth | shifted TG2 from the closed to extended conformation and that this was not reversed by GTP addition | greater than two-fold reduction
3 | 0.0115 | 1040 | C=CC(=O)NCCCC[C@H](NC(=O)OCc1ccccc1)C(=O)N1CCN(C(=O)c2cc3ccc(O)cc3oc2=O)CC1 [VA5, (S)-Benzyl(6-acrylamido-1-(4-(7-hydroxy-2-oxo-2H-chromene-3-carbonyl)piperazin-1-yl)-1-oxohexan-2-yl)carbamate] |  | drastically reduced |  |  | inhibited spheroid formation |  | promoted it | shifted TG2 from the closed to extended conformation and that this was not reversed by GTP addition | 
